The source of these data is the supplement of paper PMC8024199.

Common to all, as to test: drug sensitivity score (DSS) (DSS score); higher = more sensitive (stronger growth inhibition); extreme values may be limits of the assay
Test [1] deals with Ba/F3 P210-BCR-ABL1 RUNX1-/mut (mouse). In outline: (§1)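 Mouse Ba/F3 cells, either CRISPR/Cas9-edited at a target exon or edited-control clones, were screened against a 528-compound library on pre-printed 384-well plates. Each compound was tested at five concentrations across a 10,000-fold range, with 10,000 cells per well in RPMI with 10% FBS for 72 h at 37 °C and 5% CO2. CellTiter-Glo luminescence was scaled between vehicle and positive-control wells, and each dose-response was summarised as a drug sensitivity score. Scores were averaged over two replicates.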

Test [2] relates to Ba/F3 P210-BCR-ABL1 RUNX1-/- (mouse). In short, it runs like this:
as §1

The subject of test [3] is Ba/F3 P210-BCR-ABL1 RUNX1wt/wt control (mouse). In short, it runs like this:
as §1

± gives the standard deviation of the averaged measurements.

Consider `C[C@@H](Nc1cc(F)cc(F)c1)c1cc(C(=O)N(C)C)cc2c(=O)cc(N3CCOCC3)oc12` [AZD-8186], for which the drug sensitivity score turned out to be 0.5 ± 0.71 in test [1], 0 in test [2] and 0 in test [3].
For the compound `CCN1CCN(Cc2ccc(Nc3ncc(F)c(-c4cc(F)c5nc(C)n(C(C)C)c5c4)n3)nc2)CC1` [Abemaciclib], the drug sensitivity score was 8.3 ± 6.1 in test [1], 10.2 ± 4.7 in test [2] and 3.05 ± 0.071 in test [3].
As for `CN(C)Cc1c(C(=O)NCCOc2ccc(C(=O)NO)cc2)oc2ccccc12` [Abexinostat], the values for the drug sensitivity score in test [1], in test [2] and in test [3] were 23.2 ± 2.4, 24.4 ± 1.3 and 18.7 ± 0.28, respectively.
With `CC#CC(=O)N1CCC[C@H]1c1nc(-c2ccc(C(=O)Nc3ccccn3)cc2)c2c(N)nccn12` [Acalabrutinib], the drug sensitivity score in test [1] came out at 0.05 ± 0.071; in test [2], 0; in test [3] it was 0.
Regarding `COc1cc(C)c(/C=C/C(C)=C/C=C/C(C)=C/C(=O)O)c(C)c1C` [Acitretin], the drug sensitivity score in test [1] was determined as 1.3 ± 1.8; in test [2] it was 0; in test [3] it was 0.
As for `Cn1ncc(Cl)c1-c1cc(C(=O)N[C@H](CN)Cc2cccc(F)c2)sc1Cl` [Afuresertib], the values for the drug sensitivity score in test [1], in test [2] and in test [3] were 1.6 ± 2.3, 1.05 ± 1.1 and 0, respectively.
Take `COc1cccc2c1C(=O)c1c(O)c3c(c(O)c1C2=O)C[C@@](O)(/C(CO)=N/NC(=O)CCCCCN1C(=O)C=CC1=O)C[C@@H]3O[C@H]1C[C@H](N)[C@H](O)[C@H](C)O1` [Aldoxorubicin]: the drug sensitivity score in test [1] came to 18.1 ± 0.35; in test [2], 20.3 ± 0.71; in test [3], 11.2 ± 0.35.
In the case of `CCc1cc2c(cc1N1CCC(N3CCOCC3)CC1)C(C)(C)c1[nH]c3cc(C#N)ccc3c1C2=O` [Alectinib], the figures for the drug sensitivity score in test [1], in test [2] and in test [3] were 0.7 ± 0.99, 1.05 ± 0.35 and 0, respectively.
As to `Cc1nc(NC(=O)N2CCC[C@H]2C(N)=O)sc1-c1ccnc(C(C)(C)C(F)(F)F)c1` [Alpelisib], the drug sensitivity score in test [1] worked out at 3 ± 1.8; in test [2], 2.5 ± 0.57; in test [3], 0.75 ± 1.1.
For `O=C(Nc1cc(Oc2cc(F)c(NC(=O)C3(C(=O)Nc4ccc(F)cc4)CC3)cc2F)ccn1)C1CC1` [Altiratinib], the drug sensitivity score came to 6.8 ± 0.85 in test [1], 10.8 in test [2] and 5.45 ± 0.21 in test [3].
Take `CCN(CC)CCNC(=O)c1c(C)[nH]c(/C=C2\C(=O)Nc3ccc(-c4csc(-c5ccccc5)n4)cc32)c1C` [Amcasertib]: the drug sensitivity score in test [1] stood at 5.35 ± 7.6; in test [2], 5.95 ± 1.6; in test [3] it was 0.
As for `COc1cc(NS(C)(=O)=O)ccc1Nc1c2ccccc2nc2ccccc12` [Amsacrine], the results for the drug sensitivity score in test [1], in test [2] and in test [3] were 25.3 ± 0.71, 35.3 ± 2.7 and 21.6 ± 0.85, respectively.
As to `S=C(NCc1ccc2c(c1)OCO2)N1CCN(c2ncnc3c2oc2ccccc23)CC1` [Amuvatinib], the drug sensitivity score in test [1] came out at 8.45 ± 1.9; in test [2], 11.3 ± 1.3; in test [3], 14.9 ± 1.1.
As for `CNC(=O)c1ccc(N2C(=S)N(c3cnc(C#N)c(C(F)(F)F)c3)C(=O)C23CCC3)cc1F` [Apalutamide], the drug sensitivity score in test [1], in test [2] and in test [3] was 0 throughout.
Turning to `N#CC1(c2ccc(NC(=O)c3cccnc3NCc3ccncc3)cc2)CCCC1` [Apatinib], the results for the drug sensitivity score in test [1], in test [2] and in test [3] were 0, 0.4 ± 0.57 and 0, respectively.
On to `O=C(Nc1ccc(OC(F)(F)Cl)cc1)c1cnc(N2CC[C@@H](O)C2)c(-c2cc[nH]n2)c1` [Asciminib], for which the drug sensitivity score in test [1] was determined as 10.7 ± 4.5; in test [2], 31.85 ± 0.071; in test [3] it was 18.8 ± 0.71.
For the compound `CC(C)c1c(C(=O)Nc2ccccc2)c(-c2ccccc2)c(-c2ccc(F)cc2)n1CC[C@@H](O)C[C@@H](O)CC(=O)O` [Atorvastatin], the drug sensitivity score in test [1] was found to be 0.1 ± 0.14; in test [2] it was 0.65 ± 0.92; in test [3] it was 0.
The matching figures for `CC(=O)OC[C@H]1O[C@@H]([S-])[C@H](OC(C)=O)[C@@H](OC(C)=O)[C@@H]1OC(C)=O.CCP(CC)CC.[Au+]` [Auranofin]: 6.15 ± 4.5, 8.5 ± 0.85 and 2.8 ± 0.71.
The matching figures for `Cc1cc(-c2nc(-c3ccc(OC(F)(F)F)cc3)no2)nn1Cc1ccnc(N2CCN(C3CC3)CC2)c1` [BAY 87-2243]: 3.25 ± 1.5, 4.6 ± 2.3 and 4.9 ± 0.57.
As for `Nc1nc(Nc2ccc3c(c2)CC[C@@H](N2CCCC2)CC3)nn1-c1cc2c(nn1)-c1ccccc1CCC2` [BGB324], the drug sensitivity score came to 6.35 ± 1.2 in test [1], 7.3 ± 0.57 in test [2] and 5.65 ± 0.21 in test [3].
On to `O=C1CCc2c(Oc3ccc4c(c3)[C@@H]3[C@H](O4)[C@H]3c3nc4cc(C(F)(F)F)ccc4[nH]3)ccnc2N1` [BGB-283], for which the drug sensitivity score in test [1] is 16.9; in test [2], 21.8 ± 0.64; in test [3] it was 16 ± 0.14.
Taken in the same sequence, the figures for `CC1(C)C(C(=O)Nc2ccc(S(=O)(=O)c3ccc(NC(=O)C4C(C)(C)C4(C)C)cc3)cc2)C1(C)C` [BRD7116] were 0.05 ± 0.071, 3.75 ± 2.6 and 0.
With `O=C(Nc1cccc(Nc2ncc(Br)c(NCCc3cnc[nH]3)n2)c1)N1CCCC1` [BX-912], the drug sensitivity score in test [1] was 7.25 ± 1.1; in test [2] it was 8.9 ± 0.42; in test [3] it was 1.85 ± 0.071.
Regarding `Cc1ccc(NC(=O)c2ccc(CN3CC[C@H](N(C)C)C3)c(C(F)(F)F)c2)cc1Nc1nccc(-c2cncnc2)n1` [Bafetinib], the drug sensitivity score in test [1] stood at 19.9 ± 1.5; in test [2], 26.55 ± 0.21; in test [3], 16.3.
The matching figures for `CCS(=O)(=O)N1CC(CC#N)(n2cc(-c3ncnc4[nH]ccc34)cn2)C1` [Baricitinib]: 0, 0 and 0.
With `N#CC(c1ccnc(OCc2ccc(CN3CCOCC3)cc2)n1)c1nc2ccccc2s1` (centres undefined) [Bentamapimod], the drug sensitivity score in test [1] amounted to 0.75 ± 1.1; in test [2] it was 2.55 ± 1.6; in test [3] it was 4.25 ± 0.49.
The matching figures for `CC(O)(CS(=O)(=O)c1ccc(F)cc1)C(=O)Nc1ccc(C#N)c(C(F)(F)F)c1` (centres undefined) [Bicalutamide]: 1.15 ± 1.6, 0.25 ± 0.35 and 0.
Turning to `Cn1cnc2c(F)c(Nc3ccc(Br)cc3F)c(C(=O)NOCCO)cc21` [Binimetinib], the values for the drug sensitivity score in test [1], in test [2] and in test [3] were 0.3 ± 0.42, 3.3 ± 0.42 and 0, respectively.
Regarding `Cc1sc2c(c1C)C(c1ccc(Cl)cc1)=N[C@@H](CC(=O)Nc1ccc(O)cc1)c1nnc(C)n1-2` [Birabresib], the drug sensitivity score is 24.6 ± 3 in test [1], 24.1 ± 1.3 in test [2] and 15.2 ± 0.49 in test [3].
Taken in the same sequence, the figures for `CC[C@H](NC(=O)[C@H](C)NC)C(=O)N1C[C@@H](O)C[C@H]1Cc1c(-c2[nH]c3cc(F)ccc3c2C[C@@H]2C[C@H](O)CN2C(=O)[C@H](CC)NC(=O)[C@H](C)NC)[nH]c2cc(F)ccc12` [Birinapant] were 4.15 ± 5.2, 14 ± 5.5 and 6.15 ± 0.071.
Regarding `COc1cc(N2CCC(N3CCN(C)CC3)CC2)ccc1Nc1ncc(Cl)c(Nc2ccccc2P(C)(C)=O)n1` [Brigatinib], the figures for the drug sensitivity score in test [1], in test [2] and in test [3] were 2.55 ± 3.6, 4.95 ± 0.35 and 0.1 ± 0.14, respectively.
Take `Cc1cc2c(F)c(Oc3ncnn4cc(OC[C@@H](C)O)c(C)c34)ccc2[nH]1` [Brivanib]: the drug sensitivity score in test [1], in test [2] and in test [3] was 0 in each case.
`Nc1cc(C(F)(F)F)c(-c2cc(N3CCOCC3)nc(N3CCOCC3)n2)cn1` [Buparlisib]: the drug sensitivity score is 8.7 ± 2.3 in test [1], 8.6 ± 0.42 in test [2] and 4.5 ± 0.57 in test [3].
For `Cc1nc2cccc(N)c2c(=O)n1C1CCC(=O)NC1=O` (centres undefined) [CC122], the drug sensitivity score in test [1], in test [2] and in test [3] was 0 throughout.
For the compound `CCN1C(=O)CNc2ncc(-c3ccc(-c4nc[nH]n4)nc3C)nc21` [CC-115], the drug sensitivity score in test [1] was 12.8 ± 1.9; in test [2], 12.6 ± 2.9; in test [3], 7.65 ± 0.21.
As for `CO[C@H]1CC[C@H](N2C(=O)CNc3ncc(-c4ccc(C(C)(C)O)nc4)nc32)CC1` [CC-223], the drug sensitivity score amounted to 6.65 ± 2.2 in test [1], 7.25 ± 0.64 in test [2] and 2.45 ± 0.071 in test [3].
Take `COc1cc(C)[nH]c(=O)c1CNC(=O)c1c(C)n([C@H](C)C2CCOCC2)c2ccccc12` [CPI-360]: the drug sensitivity score in test [1], in test [2] and in test [3] was 0 each time.
Take `Cc1noc2c1-c1ccccc1C(c1ccc(Cl)cc1)=N[C@H]2CC(N)=O` [CPI-0610]: the drug sensitivity score is 19.1 ± 4.6 in test [1], 19.6 ± 1.1 in test [2] and 14 ± 0.28 in test [3].
